≈ marks a conversion by molar mass, not a printed value. Entries after “also recorded” stand apart in the source; their conditions may differ.
Key:
H-ras-NIH 3T3 cells [1] = assay: Activity to induce changes in cell morphology, H-ras-NIH 3T3 cells; assay type: cell-based, mouse; conditions: 0.3 μg/ml, 2 days
Protocol: (§1) Normal rat kidney cell, NRK-49 (Dainihon Pharmaceutical K.K.) and normal mouse cell, NIH 3T3 (JCRB Cell Bank); and K-ras NIH 3T3, H-ras NIH 3T3, and N-ras NIH 3T3 (Tokyo University, Medical Science Institute, Japan) which are cell lines that have been transformed with Kirsten sarcoma virus, Harvey sarcoma virus, and neuroblastoma virus, respectively, were incubated at 37° C. in the similar manner.
The effect of the III-121C on various types of cultured cells was evaluated by inoculating each type of cells in wells of 24 wells plastic plate (Costar 3524, manufactured by Costar) at 3×10^4 cells/1 ml medium/well; incubating the plate in an incubator of 5% CO2 for one day; and adding the III-121C sample to the cell cultures to observe the cell morphology for another two days.
K-ras-NIH 3T3 and H-ras-NIH 3T3 are transformed cell lines, and the cells are elongated with projections or processes on their surface, and grow atop the other. N-ras-NIH 3T3 cells are also elongated and their projections or processes are even longer.

cancer cell = assay: 50% inhibition of cancer cell propagation, various cell lines; assay type: cell-based; conditions: varies by type of cancer cell; approximately; Table 1; read-out: concentration (IC50) required for 50% inhibition of the cancer cell propagation
Protocol: (§2) Next, cells of different types were inoculated in wells of 12 wells plastic plate (Costar 3521, manufactured by Costar) at 2.0×10^4 /DMEM 1 ml/well, and the plate was incubated in an incubator of 5% CO2 for one day. III-121C was added to the thus incubated cells to different concentrations and incubation was continued for another 3 days. The number of cells was measured by repeating the above-described procedure to determine the concentration (IC50) of the III-121C required to inhibit the cell propagation to 50%.

[2] = Acute toxicity (LD50) on mouse upon intravenous injection; assay type: in vivo; conditions: in vivo, intravenous injection
Protocol: (§3) Toxicity (LD50) on mouse of III-121C upon intravenous injection was measured.

mouse = assay: as above; assay type: in vivo; conditions: compared to conventional alkaloid carcinostatics of plant origin
Protocol: as §3

N-ras-NIH 3T3 cells = assay: Propagation inhibitory effect on N-ras-NIH 3T3 cells; assay type: cell-based; conditions: Mus musculus, NIH3T3, 72 h; N-ras-NIH 3T3, 3 days; read-out: IC50, cell propagation
Protocol: as §1, §2

H-ras-NIH 3T3 cells [3] = assay: Propagation inhibitory effect on H-ras-NIH 3T3 cells; assay type: cell-based; conditions: Mus musculus, NIH3T3, 72 h; H-ras-NIH 3T3, 3 days; read-out: IC50, cell propagation
Protocol: as §1, §2

cell morphology = assay: Cell morphology normalizing activity (extract, fractions, purified product); assay type: cell-based
Protocol: The inventors of the present invention then succeeded in the isolation and characterization of the active component in the extract. The present invention has been completed on the bases of such study.
To a small amount of chloroform was dissolved 1.34 g of the extract, and the resulting solution was charged in a column having packed therein 10 g of silica gel (Merck silicagel 60, manufactured by Merck). To the column was first added 100% chloroform to elute the impurities, and then, 100:1 chloroform:methanol was added and the eluate was fractionated into portions of about 10 ml. Each fraction was examined by thin layer chromatography (silica gel; 20:1 chloroform:methanol solvent; UV 330 nm), and fractions having an Rf of 0.56 with blue color were collected.
The thus obtained active substance was dissolved in a small amount of methanol. After removing the precipitates, the solution was charged in a column of Toyopearl HW-40 that had been equilibrated with methanol to thereby carry out the gel filtration chromatography. The column was eluted with 100% methanol and 3 ml fractions were collected. The thus collected fractions were analyzed by thin layer chromatography using 20:1 chloroform:methanol for the developer. […] This substance is hereinafter referred to as III-121C.

RSV NRK cells = assay: Propagation inhibitory effect on RSV NRK cells; assay type: cell-based; conditions: Rattus norvegicus, 72 h, 33° C., 3 days, read-out: IC50, cell propagation
K-ras-NRK tumor = assay: Growth of K-ras-NRK tumor in nude mice; assay type: in vivo; conditions: K-ras-NRK s.c., intraperitoneal, days 0, 2, 4 (FIG. 8)
Protocol: To 4 groups of nude mice (each group comprising 6 individuals) were subcutaneously inoculated 1×10^6 cells of K-ras-NRK on their back. Formation of a small tumor was recognized after 4 days from the inoculation, and intraperitoneal administration of III-121C at different doses was started on this day (day 0). III-121C was additionally administered after two days and four days from the start of the administration to measure the volume of the tumor. No III-121C was administered to the mice of the control group. The results are depicted in FIG. 8.

## CCC12CC(C(=O)OC)=C3Nc4cc5c(cc4C34CCN(CC3OC31)C42)C1C(O5)C(O)C2(CC)CC(C(=O)OC)=C3Nc4c(cc(O)c(OC)c4OC)C34CCN1C42 (stereo not drawn) [III-121C]
H-ras-NIH 3T3 cells [1]
  change in cell morphology and growth habits: the cells changed their morphology and growth habits to those of normal NIH 3T3 cells, and became flat with an increased area of contact
Cancer cell
  IC50: 0.1 to 0.5 µg/mL (≈ 0.126 to 0.629 µM)
[2]
  LD50: 24.3 mg/kg
mouse
  acute toxicity in words: weaker toxicity; also recorded: low acute toxicity
N-ras-NIH 3T3 cells
  IC50: 0.12 µg/mL (≈ 0.151 µM)
H-ras-NIH 3T3 cells [3]
  IC50: 0.48 µg/mL (≈ 0.604 µM)
Cell morphology
  activity of normalizing the cell morphology: confirmed to have an activity of normalizing the cell morphology
RSV NRK cells
  IC50: 0.11 µg/mL (≈ 0.138 µM)
K-ras-NRK tumor
  tumor growth inhibition: the growth of the tumor was inhibited in a dose dependent manner; also recorded: growth suppression of tumors in living mammals

Reference: patent publication US5559115A, “Oncogene function-inhibitory agent, method for inhibiting oncogene function, and treatment of cancer” (Terumo Kabushiki Kaisha, priority 1993, dated 1996)
